Laboratory results from ChEMBL document CHEMBL1139724, “Synthesis and free radical scavenging activity of a novel metabolite from the fungus Colletotrichum gloeosporioides” (Bioorg Med Chem Lett, 2006).

Experiment: DPPH radical scavenging activity
Type: functional

| Compound | EC50 [mol/mol] |
| --- | --- |
| Oc1ccc([C@H]2OC[C@H](O)[C@@H]2O)cc1O | 0.14 |
| Cc1cc(C(C)(C)C)c(O)c(C(C)(C)C)c1 [BUTYLATED HYDROXYTOLUENE] | 0.23 |
| O=C(O)/C=C/c1ccc(O)c(O)c1 [CAFFEIC ACID] | 0.11 |
| O=C(O)c1ccc(O)c(O)c1 [PROTOCATECHUIC ACID] | 0.14 |
